US4178443A, “Derivatives of 7 [-substituted oxyimins acetamido] cephalosporins” (Hoffmann-La Roche Inc., priority 1977, dated 1979)
In brackets after ≈: the same amount, converted by molar mass.

Columns and labels:
Proteus mirabilis [1] = experiment: Activity in vivo: survival of mice infected intraperitoneally with Proteus mirabilis; settings: sc, 96 h; mice infected i.p. with Proteus mirabilis; compound s.c. one hour after infection; survival on 4th day; by interpolation; read-out: CD50 (dosage at which 50% of the mice survive)
Experimental: Groups of 10 mice are infected intraperitoneally with an aqueous suspension of Proteus mirabilis. One hour after the infection the test compound is administered subcutaneously. The number of surviving mice is determined on the 4th day. Various dosages of test compound are administered and the dosage at which 50% of the mice survice (CD50, mg/kg) is determined by interpolation.

Proteus rettgeri = experiment: Activity in vitro: Minimum Inhibitory Concentration; assay type: cell-based; settings: Providencia rettgeri
Excerpt: (§1) Activity in vitro: Minimum Inhibitory Concentration (μg/ml)

Escherichia coli = experiment: as above; assay type: cell-based
Excerpt: as §1

[2] = test system: Staphylococcus aureus Penicillin-resistant strain; experiment: as above; assay type: cell-based
Excerpt: as §1

Proteus vulgaris = experiment: as above; assay type: cell-based
Excerpt: as §1

Proteus mirabilis [3] = experiment: as above; assay type: cell-based
Excerpt: as §1

Klebsiella pneumoniae = experiment: as above; assay type: cell-based
Excerpt: as §1

[4] = test system: Staphylococcus aureus ATCC 6538; experiment: as above; assay type: cell-based; settings: ATCC6538
Excerpt: as §1

Haemophilus influenzae = experiment: as above; assay type: cell-based
Excerpt: as §1

[5] = Toxicity (mice, 24 hour values); settings: mouse, in vivo
Experimental: TOXICITY (mice, 24 hour values)

[6] = Haemophilus influenzae strain 1
[7] = Haemophilus influenzae strain 2
[8] = Haemophilus influenzae strain 3
[9] = Haemophilus influenzae strain 4
[10] = Haemophilus influenzae strain 5
[11] = Haemophilus influenzae strain 6
[12] = Haemophilus influenzae strain 7

Compound | ED50 (Proteus mirabilis [1]) [mg/kg] | MIC (Proteus rettgeri) [µg/mL] | MIC (Escherichia coli; Escherichia coli strain 1) [µg/mL] | MIC (Escherichia coli; Escherichia coli strain 2) [µg/mL] | MIC [2] [µg/mL] | MIC (Proteus vulgaris) [µg/mL] | MIC (Proteus mirabilis [3]; Proteus mirabilis strain 1) [µg/mL] | MIC (Proteus mirabilis [3]; Proteus mirabilis strain 2) [µg/mL] | MIC (Klebsiella pneumoniae) [µg/mL] | MIC [4] [µg/mL] | MIC (Haemophilus influenzae; [6]) [µg/mL] | MIC (Haemophilus influenzae; [7]) [µg/mL] | MIC (Haemophilus influenzae; [8]) [µg/mL] | MIC (Haemophilus influenzae; [9]) [µg/mL] | MIC (Haemophilus influenzae; [10]) [µg/mL] | MIC (Haemophilus influenzae; [11]) [µg/mL] | MIC (Haemophilus influenzae; [12]) [µg/mL] | LD50 at 24 h ([5]; iv, mice, 24 hour values) [mg/kg] | other results
CON=C(C(=O)N[C@@H]1C(=O)N2C(C(=O)O)=C(CSc3nc(=O)c(=O)[nH]n3C)CS[C@H]12)c1ccco1 [Compound A, (7R)-7-[2-(2-furyl)-2-(methoxyimino)acetamido]-3-[[(1,2,5,6-tetrahydro-2-methyl-5,6-dioxo-as-triazin-3-yl)thio]methyl]-3-cephem-4-carboxylic acid] | 0.09 | 0.63 (≈ 1.21 µM) | 0.63 (≈ 1.21 µM) | 40 (≈ 76.6 µM) | 5 (≈ 9.57 µM) | 5 (≈ 9.57 µM) | 2.5 (≈ 4.78 µM) | 5 (≈ 9.57 µM) | 10 (≈ 19.1 µM) | 2.5 (≈ 4.78 µM) | 1.2 (≈ 2.3 µM) | 0.16 (≈ 0.306 µM) | 0.16 (≈ 0.306 µM) | 0.16 (≈ 0.306 µM) | 0.08 (≈ 0.153 µM) | 0.16 (≈ 0.306 µM) | 0.08 (≈ 0.153 µM) | 500 to 1000 | LD50 at 24 h ([5]; po, mice, 24 hour values): > 5000 mg/kg; LD50 at 24 h ([5]; sc, mice, 24 hour values): > 4000 mg/kg
CON=C(C(=O)N[C@@H]1C(=O)N2C(C(=O)O)=C(CSc3ccn(N)c(=O)n3)CS[C@H]12)c1ccco1 [Compound B, (7R)-7-[2-(2-furyl)-2-(methoxyimino)acetamido]-3-[[(1-amino-1,2-dihydro-2-oxo-4-pyrimidinyl)thio]-methyl]-3-cephem-4-carboxylic acid] | 3 | 2.5 (≈ 4.94 µM) | 2.5 (≈ 4.94 µM) | 20 (≈ 39.5 µM) | 1.2 (≈ 2.37 µM) | 40 (≈ 79 µM) | 10 (≈ 19.7 µM) | 40 (≈ 79 µM) | 20 (≈ 39.5 µM) | 0.16 (≈ 0.316 µM) | 2.5 (≈ 4.94 µM) | 0.63 (≈ 1.24 µM) | 0.63 (≈ 1.24 µM) | 0.31 (≈ 0.612 µM) | 0.31 (≈ 0.612 µM) | 0.31 (≈ 0.612 µM) | 0.31 (≈ 0.612 µM) | 1000 to 2000 | 
CON=C(C(=O)N[C@@H]1C(=O)N2C(C(=O)O)=C(CSc3nc(=O)c(=O)[nH]n3C)CS[C@H]12)c1ccccc1 [Compound C, (7R)-7-[2-(phenyl)-2-(methoxyimino)acetamido]-3-[[(1,2,5,6-tetrahydro-2-methyl-5,6-dioxo-as-triazin-3-yl)thio]methyl]-3-cephem-4-carboxylic acid] | 0.6 | 0.63 (≈ 1.18 µM) | 1.2 (≈ 2.25 µM) | 10 (≈ 18.8 µM) | 2.5 (≈ 4.69 µM) | 10 (≈ 18.8 µM) | 10 (≈ 18.8 µM) | 20 (≈ 37.6 µM) | 20 (≈ 37.6 µM) | 2.5 (≈ 4.69 µM) | 2.5 (≈ 4.69 µM) | 0.16 (≈ 0.3 µM) | 0.16 (≈ 0.3 µM) | 0.16 (≈ 0.3 µM) | 0.08 (≈ 0.15 µM) | 0.08 (≈ 0.15 µM) | 0.08 (≈ 0.15 µM) | 1000 to 2000 | 
CON=C(C(=O)N[C@@H]1C(=O)N2C(C(=O)O)=C(CSc3n[nH]c(=O)c(=O)n3C)CS[C@H]12)c1ccco1 [Compound D, (7R)-7-[2-(2-furyl)-2-(methoxyimino)acetamido]-3-[[(1,4,5,6-tetrahydro-4-methyl-5,6-dioxo-as-triazin-3-yl)thio]methyl]-3-cephem-4-carboxylic acid] | 0.7 | 0.63 (≈ 1.21 µM) | 0.16 (≈ 0.306 µM) | 5 (≈ 9.57 µM) | 0.63 (≈ 1.21 µM) | 1.2 (≈ 2.3 µM) | 10 (≈ 19.1 µM) | 20 (≈ 38.3 µM) | 5 (≈ 9.57 µM) | 0.63 (≈ 1.21 µM) | 2.5 (≈ 4.78 µM) | 0.31 (≈ 0.593 µM) | 0.31 (≈ 0.593 µM) | 0.31 (≈ 0.593 µM) | 0.16 (≈ 0.306 µM) | 0.16 (≈ 0.306 µM) | 0.16 (≈ 0.306 µM) | 500 to 1000 | LD50 at 24 h ([5]; po, mice, 24 hour values): > 5000 mg/kg; LD50 at 24 h ([5]; sc, mice, 24 hour values): > 4000 mg/kg
CON=C(C(=O)N[C@@H]1C(=O)N2C(C(=O)O)=C(CSc3nc(=O)c(=O)[nH]n3C)CS[C@H]12)c1cccs1 [Compound E] | 1.15 | 2.5 (≈ 4.64 µM) | 2.5 (≈ 4.64 µM) | 20 (≈ 37.1 µM) | 2.5 (≈ 4.64 µM) | 10 (≈ 18.6 µM) | 10 (≈ 18.6 µM) | 20 (≈ 37.1 µM) | 40 (≈ 74.3 µM) | 2.5 (≈ 4.64 µM) | 2.5 (≈ 4.64 µM) | 0.16 (≈ 0.297 µM) | 0.16 (≈ 0.297 µM) | 0.16 (≈ 0.297 µM) | 0.08 (≈ 0.149 µM) | 0.08 (≈ 0.149 µM) | 0.08 (≈ 0.149 µM) |  | LD50 at 24 h ([5]; iv): 2000 to 4000 mg/kg
CCn1nc(SCC2=C(C(=O)O)N3C(=O)[C@@H](NC(=O)C(=NOC)c4ccco4)[C@H]3SC2)[nH]c(=O)c1=O [Compound F] | 0.85 | 10 (≈ 18.6 µM) | 1.2 (≈ 2.24 µM) | 80 (≈ 149 µM) | 5 (≈ 9.32 µM) | 20 (≈ 37.3 µM) | 20 (≈ 37.3 µM) | 40 (≈ 74.6 µM) | 40 (≈ 74.6 µM) | 5 (≈ 9.32 µM) | 2.5 (≈ 4.66 µM) | 0.31 (≈ 0.578 µM) | 1.2 (≈ 2.24 µM) | 0.16 (≈ 0.298 µM) | 0.08 (≈ 0.149 µM) | 0.08 (≈ 0.149 µM) | 0.16 (≈ 0.298 µM) |  | LD50 at 24 h ([5]; iv): 1000 to 2000 mg/kg
Cn1c(SCC2=C(C(=O)O)N3C(=O)[C@@H](NC(=O)C(=NOCC(N)=O)c4ccco4)[C@H]3SC2)n[nH]c(=O)c1=O [Compound G, (7R)-7-[2-[(carbamoylmethoxy)imino]-2-(2-furyl)-acetamido]-3-[[(1,4,5,6-tetrahydro-4-methyl-5,6-dioxo-as-triazin-3-yl)thio]methyl]-3-cephem-4-carboxylic acid] | 0.8 | 0.63 (≈ 1.11 µM) | 0.31 (≈ 0.548 µM) | 5 (≈ 8.84 µM) | 1.2 (≈ 2.12 µM) | 1.2 (≈ 2.12 µM) | 5 (≈ 8.84 µM) | 10 (≈ 17.7 µM) | 2.5 (≈ 4.42 µM) | 1.2 (≈ 2.12 µM) | 5 (≈ 8.84 µM) | 0.63 (≈ 1.11 µM) | 0.31 (≈ 0.548 µM) | 0.63 (≈ 1.11 µM) | 0.31 (≈ 0.548 µM) | 0.63 (≈ 1.11 µM) | 0.63 (≈ 1.11 µM) | > 4000 | 
